According to patent US9962341B2, “Active pharmaceutical ingredient (API) comprising cannabinoids for use in the treatment of cancer” (GW Pharma Limited, priority 2014, dated 2018):
Like-named read-outs stand apart in the source and are kept apart here.

Tested on: MDA-MB-231
Test: Cell viability (CellTiter-Blue, 72 h), MDA-MB-231 breast cancer cells
Type: cell-based
Details: for IC50: Homo sapiens; for effect (but only 50% effect): extent of effect reached
Procedure: The cell lines tested in this Example were as follows. Breast cancer: MDA-MB-231; SK-BR3; and BT474. Liver cancer: HepG2.
The phytocannabinoids were tested alone and in various ratioed combinations in media containing final concentrations of 10% and 1% foetal bovine serum at 72 h for the breast and prostate cancer lines and 1% foetal bovine serum for the liver cancer line HepG2.
Each tumour cell line was maintained in vitro in RPMI 1640+10% heat inactivated FBS and 2 mM L-glutamine (growth media) at 37° C. in 5% CO2 and humidified conditions. The cells were harvested, washed, re-suspended into growth medium and counted. The cells were re-suspended into assay media (RPMI 1640+5% heat inactivated FBS+ and 2 mM L-glutamine) at 8×104-2×10^5 cells/ml (dependent upon cell type) and plated into the middle 240 wells of 384 well tissue culture plates (Corning CellBind, black-wall plates) 12.5 μl/well aliquots; 62.5 μl of growth media was aliquoted into the outer wells. There were 4 plates for each cell line. The plates were incubated overnight at 37° C., in 5% humidified CO2.
The phytocannabinoid test compounds were prepared in 100% DMSO vehicle at a stock concentration of 10 mM.
Starting with the 10 mM stock, the compounds were diluted to 125 μM in FBS-free growth media.
These were diluted in FBS-free growth media to 125 μM before serial dilution.
5 volumes of CBD 10 mM stock was added to 1 volume of the other agent (also at 10 mM) and 4 volumes of DMSO. This made a final concentration of 5 mM:1 mM. This was then diluted in FBS-free growth media so the top concentration of CBD would be 125 μM (before serial dilution). Each compound and compound combination stock was serially diluted in FBS-free growth media (containing 1.25% v/v DMSO) from 125 μM to 41.7, 13.89, 4.63, 1.54, 0.514, 0.171, 0.057 and 0.019 μM (1.25× final assay concentrations). Vehicle was prepared at equivalent dilutions in assay media. The top final concentration of compound in the assay was always 100 μM so CBD5:1CBG was 100 μM CBD and 20 μM CBG.
Taxotere SOC was prepared at a stock concentration of 1 mM in 100% DMSO. Taxotere was serially diluted from the stock solution into FBS-free growth media to 12.5 μM, then serially diluted in FBS-free growth media containing 1.25% DMSO to 4.17, 1.39, 0.46, 0.154, 0.051, 0.017, 0.006, 0.002 μM (1.25× final assay concentrations).
The plates were incubated for 72 h at 37° C. in 5% humidified CO2. To develop the plates, at 72 h, 10 μl of CellTiter-Blue™ reagent was added to each test/blank well. The plates were incubated at 37° C., 5% humidified CO2. Fluorescence was measured using a Flex II Station plate reader (570 nm excitation wavelength, 600 nm emission wavelength, 590 nm cut-off) after 3 h.
The experimental conditions were the same as the experiment above, with the same compound dilutions and volumes for plating but using growth media containing 10% FBS rather than FBS-free media.
The raw data values expressed in relative fluorescent units were normalised to the vehicle for each individual plate and any reduction in fluorescence indicated a decrease in viability.
The data were analysed in GraphPad PRISM using a non-linear sigmoidal plot with variable slope (asymmetric five point linear regression) and where possible an IC50 value for each single compound and combination was generated.
For the calculation, raw data values expressed in relative fluorescent units were normalised to the vehicle for each individual plate (set as 0%) and the reduction in fluorescence calculated as an increase in inhibition of viability.
The data was formatted in Excel for each assay plate so that the average effect at each concentration for each separate phytocannabinoid and each of the combinations could be determined.
The mean data at each concentration of CBD was imported into the analysis package Calcusyn. Calcusyn software was designed by M. Hayball and C.

[1] = MDA-MB-231, 72 h, read-out: IC50 values, MDA-MB-231, 1% FBS, 72 h
[2] = MDA-MB-231, 72 h, read-out: IC50 values, MDA-MB-231, 10% FBS, 72 h
[3] = MDA-MB-231, read-out: Dm (median effect dose), MDA-MB-231, 1% FBS, Calcusyn median-effect analysis

`C=C(C)[C@@H]1CCC(C)=C[C@H]1c1c(O)cc(CCCCC)cc1O` [CBD, Cannabidiol] was tested, and the IC50 [1] was 7.4 µM, the IC50 [2] was 27 µM and the IC50 [3] was 5.61 µM.

With `C=C(C)[C@@H]1CCC(C)=C[C@H]1c1c(O)cc(CCCCC)c(C(=O)O)c1O` [CBDA, Cannabidiolic acid] the IC50 [1] was 30 µM, the IC50 [3] was 20 µM and the IC50 values (MDA-MB-231, 10% FBS, 72 h) was “NE at 100 μM”.

For `CC(=O)O[C@@]12CO[C@@H]1C[C@H](O)[C@@]1(C)C(=O)[C@H](O)C3=C(C)[C@@H](OC(=O)[C@H](O)[C@@H](NC(=O)OC(C)(C)C)c4ccccc4)C[C@@](O)([C@@H](OC(=O)c4ccccc4)[C@H]21)C3(C)C` [Taxotere, Docetaxel, reference compound], the IC50 [1] was under 0.001 µM, the IC50 [2] was under 0.001 µM and the “effect (but only 50% effect)” value (MDA-MB-231, 1% FBS) was “only 50%”. The “effect (but only 50% effect)” value (MDA-MB-231, 10% FBS) was “only 50%”.

In the case of `CCCCCc1cc(O)c(C/C=C(\C)CCC=C(C)C)c(O)c1C(=O)O` [CBGA, Cannabigerolic acid], the IC50 [1] is reported as 16 µM, the IC50 [2] is reported as about 100 µM and the IC50 [3] is reported as 43.5 µM.

Work on `CCCCCc1cc(O)c(C/C=C(\C)CCC=C(C)C)c(O)c1` [CBG, Cannabigerol] yielded an IC50 [1] of 4.1 µM, an IC50 [2] of 29 µM and an IC50 [3] of 14.2 µM.

Compound `CCCc1cc(O)c2c(c1)OC(C)(C)[C@@H]1CCC(C)=C[C@@H]21` [THCV, Tetrahydrocannabivarin] has an IC50 [1] of 14.4 µM, an IC50 [2] of 36 µM and an IC50 [3] of 39 µM.
